From patent US11992497B2 (priority 2021, dated 2024)

Key:
UGT1A4 = target: T1, UGT1A4 (Homo sapiens, UniProt P22310); experiment: UGT reaction phenotyping, recombinant Supersomes; assay type: in vitro ADME; details: human, recombinant UGT1A4 Supersomes, pH 7.4, Test Conc. 1 μM; for microsomal CLint at 1 µM: read-out: Recombinant UGT CLINT Clearance; for half-life at 1 µM: read-out: Recombinant UGT Half Life T1/2
T1 construct: purchased BD Biosciences
T1 sequence (P22310 29-534): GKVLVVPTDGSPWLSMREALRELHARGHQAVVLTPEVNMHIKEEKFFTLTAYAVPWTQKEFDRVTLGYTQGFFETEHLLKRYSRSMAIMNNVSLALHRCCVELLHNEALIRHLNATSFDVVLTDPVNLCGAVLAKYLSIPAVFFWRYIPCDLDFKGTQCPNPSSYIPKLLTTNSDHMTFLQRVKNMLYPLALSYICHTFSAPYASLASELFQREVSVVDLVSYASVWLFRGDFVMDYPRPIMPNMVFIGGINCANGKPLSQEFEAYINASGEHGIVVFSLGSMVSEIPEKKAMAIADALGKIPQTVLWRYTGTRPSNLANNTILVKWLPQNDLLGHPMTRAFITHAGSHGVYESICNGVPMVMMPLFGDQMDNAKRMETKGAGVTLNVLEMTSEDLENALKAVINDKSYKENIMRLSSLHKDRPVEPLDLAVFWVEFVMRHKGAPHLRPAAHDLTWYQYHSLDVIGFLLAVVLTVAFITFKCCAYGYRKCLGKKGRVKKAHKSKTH
Text: (§1) Experimental Summary: UGT Reaction Phenotyping (7 Isoforms).

[1] = Hepatocyte stability and metabolite profiling; assay type: in vitro ADME, monkey; details: cryopreserved hepatocytes in suspension; Monkey cryopreserved hepatocytes
Procedure: (§2) The objective of this study was to investigate the stability of the test compound, CBG, in human, rat, dog, mouse, monkey and minipig cryopreserved hepatocytes. Follow-on metabolite profiling was performed.
(§3) CBG was incubated up to 2 hr with cryopreserved hepatocytes. Cryopreserved hepatocytes in suspension were added to test compound in supplemented media following pre-incubation to initiate the reaction and the reactions were stopped by organic solvent at the appropriate time points. The termination plates were centrifuged and sample supernatants were analysed using Cyprotex generic LC MS/MS conditions to generate intrinsic clearance values for CBG. Two control compounds for each species were included in the assay and if the values for these compounds were not within the specified limits the results were rejected and the experiment repeated.
(§4) Following the hepatocyte stability assay the samples were 59tilized for metabolite profiling using suitable high-resolution LC-MS/MS conditions. The 40 and 60 minute human samples, 20 and 120 minute rat samples, 10 and 20 minute dog and monkey samples, 20 and 60 minute mouse samples, and 40 and 120 minute minipig samples were compared against the 0 minute control sample to establish which and how many metabolites were formed. […] No further analysis was carried out with the mouse species.
(§5) The areas and percentages reported for the parent and metabolites were calculated using the XIC data. Metabolite observed at greater than 1% of the total of drug related material are reported. […] For accuracy, a ppm error of less than 5 is desirable; when the response for a metabolite observed is low the ppm error maybe greater than 5. Where a metabolite has been referred to as a potential oxidation it can refer to a potential hydroxylation, epoxidation or oxide formation. Representative collision induced dissociation (CID) mass spectra were obtained for the metabolites found.

[2] = system: cryopreserved hepatocytes; experiment: Hepatocyte stability and metabolite profiling; assay type: in vitro ADME, monkey; details: monkey hepatocyte samples
Procedure: as §2, §3, §4, §5

[3] = system: indomethacin induced intestinal injury; experiment: Indomethacin-induced Crohn's disease in rats; assay type: in vivo; details: for small intestine weight compared to vehicle: all three treatment groups (50, 200, 800 mg/kg PO, days 0-3); for body weight change (prevention of weight loss): all treatment groups (50, 200, 800 mg/kg PO, days 0-3), vs dexamethasone (Compound 2: also vehicle)
Procedure: The objective of this study was to determine the efficacy of Compound 1 and Compound 2 in a model of Crohn's disease (indomethacin induced intestinal injury) in rats.
The study design was identical for Compound 1 and Compound 2. On study day −3, rats were weighed and distributed into treatment groups based on body weight.
On study day 0, treatment was initiated and continue as indicated in the Study Design Tables below. Groups 2-6 received a subcutaneous injection of indomethacin (9 mg/kg, 1 ml/kg) in 5% sodium bicarbonate (Sterile Water). On study day 1, Groups 2-6 received a second subcutaneous injection of indomethacin (8 mg/kg, 1 ml/kg) in 5% sodium bicarbonate (Sterile Water). Live phase sample & data collection specifics are outlined below. On study day 4, animals will be euthanized, a section of the small intestine will be removed and weighed. Further necropsy sample and data collection is specified below. Overall efficacy of test articles will be based on body weight, small intestine weight (10 cm), small intestine gross score, and histopathology
At necropsy, the small intestines were evaluated visually and given a gross score according to the following criteria: ⋅0=Normal. 0.5=Very Minimal thickening, multifocal in area at risk. 1=Minimal thickening, fairly diffuse in area at risk. 2=Mild to moderate small intestinal/mesenteric thickening throughout area at risk. 3=Moderate thickening with 1 or more definite adhesions that would be easy to separate. 4=Marked thickening with numerous hard to separate adhesions. 5=Severe intestinal lesion resulting in death.
Preserved 9-cm sections of small intestine were trimmed into 6 transverse sections collected at approximately equal intervals along the […] of the intestine, without bias toward lesion presence or absence. These trimmed sections were processed through graded alcohols and a clearing agent, infiltrated and embedded in paraffin, sectioned, and stained with hematoxylin and eosin (H&E).
Small intestine sections from all animals were examined microscopically by a board-certified veterinary pathologist, and observations were entered into a computer-assisted data retrieval system. Cross sections of small intestine were scored for inflammation and necrosis using the following criteria:
The area at risk for development of this lesion is generally approximately 30% of the total area of a cross section of small intestine where the mesentery attaches.
Inflammation is localized to the mesentery and intestinal area at risk for necrosis with slight extension on either side of it. […] In this case, inflammation is scored based on overall severity ranging from 0.5 (very minimal) to 5 (severe) without regard for the extent of necrosis. The mean score for necrosis and inflammation was calculated for each animal and these mean scores were then summed to arrive at a total score. Each section also has a measurement of total width of mucosal necrosis.

UGT = UGT reaction phenotyping, all the UGTs combined; assay type: in vitro ADME, Human
Text: as §1

[4] = Compound 1 Group 5 (200 mg/kg PO)
[5] = Compound 1 Groups 4 and 5 (50, 200 mg/kg PO)

Compound: CCCCCc1cc(O)c(C/C=C(\C)CCC=C(C)C)c(O)c1 [CBG, cannabigerol]
- microsomal CLint at 1 µM (UGT1A4): < 2.89 µL/min/mg
- half-life at 1 µM (UGT1A4): > 4 h
- half-life [1]: 0.188 h
- hepatocyte CLint [1]: 122 µL/min/1e6 cells
- number of metabolites observed [2]: four

Compound: CCCCCc1cc(O)c(C/C=C(\C)CCC=C(C)C)c(OC)c1 [Compound 1, (E)-2-(3,7-dimethylocta-2,6-dien-1-yl)-3-methoxy-5-pentylphenol]
- histopathology scores vs vehicle and dexamethasone [3, 4]: significantly lower
- necrosis width vs vehicle and dexamethasone [3, 4]: significantly lower
- Histopathology scores vs vehicle and positive control [3, 5]: trended lower
- necrosis width vs vehicle and positive control [3, 5]: trended lower
- small intestine gross score compared to vehicle ([3]; Group 4 (50 mg/kg PO)): trend in lower small intestine gross score
- small intestine gross score compared to vehicle ([3]; Groups 5-6 (200, 800 mg/kg PO)): significant reductions
- small intestine weight compared to vehicle [3]: significantly lower
- body weight change (prevention of weight loss) [3]: trended towards or had significant differences in preventing weight loss
- microsomal CLint at 1 µM (UGT1A4): < 2.89 µL/min/mg
- half-life at 1 µM (UGT1A4): > 4 h
- Total UGT activity relative to that observed with CBG (UGT): 23%
- share of total UGT activity associated with UGT1A9 and UGT2B7 (UGT): 73%

Compound: CCCCCc1cc(OC)c(C/C=C(\C)CCC=C(C)C)c(OC)c1 [Compound 2, (E)-2-(3,7-dimethylocta-2,6-dien-1-yl)-1,3-dimethoxy-5-pentylbenzene]
- reduction of necrosis width, of vehicle ([3]; Compound 2 Group 5): 99%
- histopathology scores vs vehicle and dexamethasone ([3]; Compound 2 Group 5 & 6): significantly lower
- necrosis width vs vehicle and dexamethasone ([3]; Compound 2 Group 5 & 6): significantly lower
- reduction of necrosis width, of vehicle ([3]; Compound 2 Group 6): 96%
- Histopathology scores vs vehicle ([3]; Compound 2 Groups 4-6): lower than the vehicle
- necrosis width vs vehicle ([3]; Compound 2 Groups 4-6): lower than the vehicle
- small intestine gross score compared to vehicle ([3]; Group 4 (50 mg/kg PO)): trend in lower small intestine gross score
- small intestine gross score compared to vehicle ([3]; Groups 5-6 (200, 800 mg/kg PO)): significant reductions
- small intestine weight compared to vehicle [3]: significantly lower
- body weight change (prevention of weight loss) [3]: trended towards or had significant differences in preventing weight loss
